Measured values reported in paper PMC3632601, “Polyacetylenes from Notopterygium incisum–New Selective Partial Agonists of Peroxisome Proliferator-Activated Receptor-Gamma” (PLoS ONE, 2013).
Where “and” joins values, the source holds several entries; their conditions need not be identical. Equal values may be shown once. Entries after “also recorded” stand apart in the source; their conditions may differ.

Key:
human PPARγ = biological target: T1, human PPARγ (Homo sapiens, UniProt P37231); assay: PPARγ luciferase reporter gene transactivation in transfected HEK-293 cells; conditions: for PPARγ activation maximal fold activation: HEK-293, 18 h, fold induction above vehicle control (DMSO 0.1%)
T1 sequence (P37231 1-477 isoform P37231-2): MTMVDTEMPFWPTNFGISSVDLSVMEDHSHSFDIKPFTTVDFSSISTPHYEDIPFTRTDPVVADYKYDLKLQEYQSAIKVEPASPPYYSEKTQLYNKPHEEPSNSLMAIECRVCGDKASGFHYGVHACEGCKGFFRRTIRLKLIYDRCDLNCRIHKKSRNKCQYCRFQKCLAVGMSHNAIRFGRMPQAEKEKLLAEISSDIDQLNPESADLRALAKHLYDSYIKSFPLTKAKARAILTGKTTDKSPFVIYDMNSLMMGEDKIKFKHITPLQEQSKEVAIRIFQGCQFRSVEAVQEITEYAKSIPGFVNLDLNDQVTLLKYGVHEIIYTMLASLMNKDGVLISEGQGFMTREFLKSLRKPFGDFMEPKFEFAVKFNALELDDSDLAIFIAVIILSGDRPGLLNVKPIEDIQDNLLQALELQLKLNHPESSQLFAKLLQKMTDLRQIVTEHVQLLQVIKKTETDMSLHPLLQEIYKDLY
Experimental: HEK-293 cells (ATCC, USA) were cultured in DMEM with phenol red, supplemented with 100 U/ml benzylpenicillin, 100 µg/ml streptomycin, 2 mM L-glutamine, and 10% FBS. Cells were maintained in 75 cm^2 flasks containing 10 ml medium at 37°C and 5% CO2. The cells were seeded in 10 cm dishes at a density of 6 × 10^6 cells/dish, incubated for 18 h, and transfected by the calcium phosphate precipitation method [31] with 4 µg of the reporter plasmid (tk-PPREx3-luc), 4 µg from the respective PPAR subtype expression plasmid, and 2 µg green fluorescent protein plasmid (pEGFP-N1, Clontech, Mountain View, CA) as internal control. After 6 h, the transfected cells were harvested and re-seeded (5 × 10^4 cells/well) in 96-well plates containing DMEM without phenol red, supplemented with 100 U/ml benzylpenicillin, 100 µg/ml streptomycin, 2 mM L-glutamine, and 5% charcoal-stripped FBS. The cells were further treated with the indicated extracts or compounds or the solvent vehicle and incubated for 18 h. The medium was then discarded and the cells were lysed with a reporter lysis buffer (E3971, Promega, Madison, USA). Luciferase activity of the cell lysates was evaluated using a GeniosPro plate reader (Tecan, Grödig, Austria). The luminescence signals obtained from the luciferase activity measurements were normalized to the EGFP-derived fluorescence, to account for differences in the transfection efficiency or cell number.
(A) HEK-293 cells were transiently co-transfected with a plasmid encoding full-length human PPARγ, a reporter plasmid containing PPRE coupled to a luciferase reporter and an EGFP plasmid as internal control. […] The data shown are means ± SD of three independent experiments each performed in quadruplet. ***p<0.001, *p<0.05 (compared to the solvent vehicle group; ANOVA/Bonferroni).
The data points shown are means ± SEM of three independent experiments each performed in quadruplet. (B) Cells were transfected and treated as indicated above. […] (C) The cells were prepared as indicated above and treated for 18 h with different concentrations of falcarindiol, always in the presence of 1 µM pioglitazone. The data shown are means ± SD of three independent experiments each performed in quadruplet.

human PPARβ/δ = biological target: T2, human PPARβ/δ (Homo sapiens, UniProt Q03181); assay: PPARβ/δ luciferase reporter gene transactivation in transfected HEK-293 cells; type: cell-based; conditions: HEK-293, tk-PPREx3-luc reporter, 18 h, 0.1–30 µM; n.d. = not detected up to 30 µM; read-out: PPARβ/δ activation EC50
T2 construct: expressed in transfected cells; host or cells: HEK-293
T2 sequence (Q03181 1-441): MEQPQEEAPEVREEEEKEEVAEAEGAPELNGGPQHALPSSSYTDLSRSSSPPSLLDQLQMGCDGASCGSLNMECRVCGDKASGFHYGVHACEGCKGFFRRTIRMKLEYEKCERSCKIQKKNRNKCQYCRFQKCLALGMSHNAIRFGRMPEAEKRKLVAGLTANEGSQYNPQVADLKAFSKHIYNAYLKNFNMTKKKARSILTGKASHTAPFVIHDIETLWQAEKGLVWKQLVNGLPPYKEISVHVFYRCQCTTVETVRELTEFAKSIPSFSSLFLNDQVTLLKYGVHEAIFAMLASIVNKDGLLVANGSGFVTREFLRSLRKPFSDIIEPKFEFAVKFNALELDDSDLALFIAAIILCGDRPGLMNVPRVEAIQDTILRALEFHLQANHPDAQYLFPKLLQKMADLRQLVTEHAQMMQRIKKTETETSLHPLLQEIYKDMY
Experimental: (§1) HEK-293 cells (ATCC, USA) were cultured in DMEM with phenol red, supplemented with 100 U/ml benzylpenicillin, 100 µg/ml streptomycin, 2 mM L-glutamine, and 10% FBS. Cells were maintained in 75 cm^2 flasks containing 10 ml medium at 37°C and 5% CO2. The cells were seeded in 10 cm dishes at a density of 6 × 10^6 cells/dish, incubated for 18 h, and transfected by the calcium phosphate precipitation method with 4 µg of the reporter plasmid (tk-PPREx3-luc), 4 µg from the respective PPAR subtype expression plasmid, and 2 µg green fluorescent protein plasmid (pEGFP-N1, Clontech, Mountain View, CA) as internal control. After 6 h, the transfected cells were harvested and re-seeded (5 × 10^4 cells/well) in 96-well plates containing DMEM without phenol red, supplemented with 100 U/ml benzylpenicillin, 100 µg/ml streptomycin, 2 mM L-glutamine, and 5% charcoal-stripped FBS. The cells were further treated with the indicated extracts or compounds or the solvent vehicle and incubated for 18 h. The medium was then discarded and the cells were lysed with a reporter lysis buffer (E3971, Promega, Madison, USA). Luciferase activity of the cell lysates was evaluated using a GeniosPro plate reader (Tecan, Grödig, Austria). The luminescence signals obtained from the luciferase activity measurements were normalized to the EGFP-derived fluorescence, to account for differences in the transfection efficiency or cell number.

human PPARα = biological target: T3, human PPARα (Homo sapiens, UniProt Q07869); assay: PPARα luciferase reporter gene transactivation in transfected HEK-293 cells; type: cell-based; conditions: HEK-293, tk-PPREx3-luc reporter, 18 h, 0.1–30 µM; n.d. = not detected up to 30 µM; read-out: PPARα activation EC50
T3 construct: expressed in transfected cells; host or cells: HEK-293
T3 sequence (Q07869 1-468): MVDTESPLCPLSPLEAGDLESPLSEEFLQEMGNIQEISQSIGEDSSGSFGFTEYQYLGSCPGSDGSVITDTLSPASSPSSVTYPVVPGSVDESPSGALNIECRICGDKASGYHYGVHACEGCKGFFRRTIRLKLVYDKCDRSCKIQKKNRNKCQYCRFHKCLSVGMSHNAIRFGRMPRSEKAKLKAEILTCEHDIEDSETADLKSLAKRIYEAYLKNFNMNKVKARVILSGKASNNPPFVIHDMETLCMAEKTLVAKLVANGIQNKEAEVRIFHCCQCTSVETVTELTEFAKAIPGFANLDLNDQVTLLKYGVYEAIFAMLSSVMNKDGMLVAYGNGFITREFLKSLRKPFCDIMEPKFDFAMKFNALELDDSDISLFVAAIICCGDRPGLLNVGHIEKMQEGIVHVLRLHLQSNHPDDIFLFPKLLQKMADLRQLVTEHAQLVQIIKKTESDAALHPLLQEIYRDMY
Experimental: as §1

[1] = biological target: T4, human PPARγ ligand-binding domain (LBD) (Homo sapiens, UniProt P37231); assay: LanthaScreen TR-FRET PPARγ competitive binding assay; conditions: purified human PPARγ-LBD, 6 h incubation, Cheng-Prusoff from IC50
T4 construct: purchased Invitrogen
T4 sequence (P37231 238-503 limits assumed): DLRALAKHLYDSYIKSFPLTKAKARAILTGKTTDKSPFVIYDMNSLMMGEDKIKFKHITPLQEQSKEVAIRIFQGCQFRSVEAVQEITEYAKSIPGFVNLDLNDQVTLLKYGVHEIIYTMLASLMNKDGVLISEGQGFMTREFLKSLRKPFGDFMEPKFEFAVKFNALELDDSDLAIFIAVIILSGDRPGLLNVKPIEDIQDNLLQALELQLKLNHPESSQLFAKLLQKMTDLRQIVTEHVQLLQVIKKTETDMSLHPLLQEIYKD
Experimental: The LanthaScreen® time-resolved fluorescence resonance energy transfer (TR-FRET) PPARγ competitive binding assay (Invitrogen, Lofer, Austria) was performed according to the manufacturer’s protocol. The test compounds dissolved in DMSO or the blank solvent vehicle (DMSO) were incubated together with the human PPARγ ligand-binding domain (LBD) tagged with GST, a terbium-labeled anti-GST antibody, and a fluorescently labeled PPAR ligand (Fluormone Pan-PPAR Green, Invitrogen). In this assay, the fluorescently labeled ligand is binding to the human PPARγ LBD, which brings it in close spatial proximity to the terbium-labeled anti-GST antibody. Excitation of the terbium at 340 nm results in energy transfer (FRET) and partial excitation of the fluorescently labeled PPAR ligand, followed by emission at 520 nm. Test-compounds binding to the human PPARγ LBD are competing with the fluorescently labeled ligand and displacing it, resulting in a decrease of the FRET signal. […] All measurements were performed with a GeniosPro plate reader (Tecan, Grödig, Austria).
One-way analysis of variance (ANOVA) with Bonferroni post hoc test, or two-tailed paired t-test was used to determine statistical significance. […]

3T3-L1 adipocytes = assay: 2-Deoxy-D-(1H^3)-glucose uptake in differentiated 3T3-L1 adipocytes; type: cell-based; conditions: 10 µM for 48 h, insulin 500 pM, vs vehicle, listed as falcarindiol
Experimental: Confluent 3T3-L1 preadipocytes (ATCC, USA) were differentiated (day 0) into mature adipocytes for 10 days (2 days in DMEM supplemented with 10% FBS, […], 1 µg/ml insulin and 500 nM dexamethasone followed by 2 days in DMEM/10% FBS/1 µg/ml insulin and 6 days in DMEM/10% FBS), and incubated with the test compounds (10 µM) or 0.1% DMSO as vehicle control for 48 h at 37°C. Before the experiment, cells were incubated for 4 h in DMEM/0.1% BSA followed by 1 h in KRH/BSA buffer (50 mM HEPES, 136 mM NaCl, 23.5 mM KCl, 1.25 mM MgSO4, 1.25 mM CaCl2 and 0.1% BSA). […] The glucose uptake rate was determined by liquid scintillation counting (Perkin Elmer, Waltham, MA, USA) of cell lysates (20 mM HEPES, 1% Igepal CA-630), and normalized to protein content assessed by the Bradford protein assay.
Figure 4 Assessment of adipogenicity and glucose uptake-enhancing properties of falcarindiol. […] For an estimate of accumulated lipids, and thus for the adipogenic potential of the test compounds, Oil Red O staining and photometric quantification at 550 nm was performed. […] (B) 3T3-L1 mature adipocytes were incubated with falcarindiol (10 µM) or solvent vehicle (0.1% DMSO) for 48 h and 2-deoxy-D-(1H^3)-glucose cellular uptake was determined for 10 min in the presence or absence (basal uptake) of insulin (500 pM). […]

3T3-L1 preadipocytes = assay: Adipogenicity: 3T3-L1 preadipocyte differentiation, Oil Red O staining; type: cell-based; conditions: 10 µM, with 1 µg/ml insulin, compared with pioglitazone 10 µM; listed as falcarindiol
Experimental: 3T3-L1 preadipocytes (ATCC, USA) were propagated in DMEM supplemented with 10% calf serum. […]. The medium was renewed every two days until day 8. For an estimate of lipid accumulation, Oil Red O staining was performed. For this, cells were fixed in 10% formaldehyde for 1 h and stained with Oil Red O for 10 min. After washing off excessive dye, bound dye was solubilized with 100% isopropanol and photometrically quantified at 550 nm. For better appreciation of the adipogenic potential of the investigated PPARγ agonists, a subset of preadipocytes was treated according to a common standard differentiation protocol (2 days in DMEM/10% FBS/500 µM IBMX/500 nM dexamethasone and 1 µg/mL insulin (MDI), followed by 2 days in DMEM/10% FBS/1 µg/ml insulin and 6 days in DMEM/10% FBS).
Figure 4 Assessment of adipogenicity and glucose uptake-enhancing properties of falcarindiol. […]; containing 10% FBS, 500 µM IBMX, 500 nM dexamethasone, and 1 µg/ml insulin) as a positive control. For an estimate of accumulated lipids, and thus for the adipogenic potential of the test compounds, Oil Red O staining and photometric quantification at 550 nm was performed. […] (B) 3T3-L1 mature adipocytes were incubated with falcarindiol (10 µM) or solvent vehicle (0.1% DMSO) for 48 h and 2-deoxy-D-(1H^3)-glucose cellular uptake was determined for 10 min in the presence or absence (basal uptake) of insulin (500 pM). […]

Row | Structure (SMILES) | EC50 (human PPARγ) [µM] | PPARγ activation maximal fold activation (human PPARγ) [fold] | EC50 (human PPARβ/δ) [µM] | EC50 (human PPARα) [µM] | share of the stimulating effect of pioglitazone blocked by co-treatment (human PPARγ; co-treatment with 1 µM pioglitazone, 18 h, maximal block) | stimulating effect upon co-treatment with PPARγ antagonist T0070907 (human PPARγ; falcarindiol 10 µM, T0070907 1 µM) | Ki [1] | insulin-mediated glucose uptake (3T3-L1 adipocytes) | 3T3-L1 adipocyte differentiation (lipid accumulation, Oil Red O) (3T3-L1 preadipocytes)
1 | C=C[C@@H](O)/C=C/C#C[C@@H](O)/C=C\CCCCCCC [compound 4, 3R,4E,8S,9Z-heptadeca-1,4,9-triene-6-yne-3,8-diol] | 4.58 | 2.29 | > 30 | > 30 | – | – | – | – | –
2 | C=C[C@@H](O)C#CC#C[C@@H](O)/C=C\CCCCCCC [compound 2, 3R,8S,9Z-heptadeca-1,9-diene-4,6-diyne-3,8-diol] | 3.29 | 3.26 | > 30 | > 30 | 70–80% | blocked | 3.07 µM and 3.1 µM | significantly enhanced | induced 3T3-L1 preadipocyte differentiation; also recorded: induced the differentiation to adipocytes as expected, although to a smaller extent than pioglitazone
3 | CCCCCCC/C=C\CC#CC#C/C=C\CO [compound 6, 2Z,9Z-heptadecadiene-4,6-diyne-1-ol] | 4.18 | 1.73 | > 30 | > 30 | – | – | – | – | –
4 | C=C[C@@H](O)C#CC#C[C@H](/C=C\CCCCCCC)OC(C)=O [compound 1, 3R,8S,9Z-3-hydroxyheptadeca-1,9-diene-4,6-diyne-8-yl acetate] | 3.59 | 2.36 | > 30 | > 30 | – | – | – | – | –
5 | C=C[C@@H](O)C#CC#C[C@@H](O)C1OC1CCCCCCC (stereo partly drawn) [compound 3, 1R,6R-1-(3-heptyloxiran-2-yl)octa-7-ene-2,4-diyne-1,6-diol] | 2.03 | 1.88 | > 30 | > 30 | – | – | – | – | –
6 | CCCCCCC/C=C\CC#CC#CCCCO [compound 5, 9Z-heptadecene-4,6-diyne-1-ol] | 11.3 | 1.92 | > 30 | > 30 | – | – | – | – | –
